# Patent US20230278953A1, “WATER SOLUBLE PRODRUGS OF PTBA FOR USE IN HDAC INHIBITION AND ENHANCING RENAL RECOVERY FOLLOWING ACUTE KIDNEY INJURY” (KLOTHO THERAPEUTICS, INC., priority 2020, published 2023)
# Tests used:
# [1] = Determination of Kinetic Solubility; assay type: physicochemical; details: phosphate-buffered saline, aqueous buffer, kinetic from dmso stock; PBS pH 7.4, 2% final DMSO, 25° C., two hours; effective range approximately 2-400 μM
# Description: A 20 mM stock solution of the test compound in 100% DMSO dilutions were prepared to a theoretical concentration of 400 μM in duplicates in phosphate-buffered saline pH 7.4 (138 mM NaCl, 2.7 mM KCl, 10 mM K-phosphate) with 2% final DMSO. The experimental compound dilutions in PBS were further allowed to equilibrate at 25° C. on a thermostatic shaker for two hours and then filtered through HTS filter plates using a vacuum manifold. The filtrates of test compounds were diluted 2-fold with acetonitrile with 2% DMSO before measuring.
# In parallel, compound dilutions in 50% acetonitrile/PBS were prepared to theoretical concentrations of 0 μM (blank), 10 μM, 25 μM, 50 μM, 100 μM, and 200 μM with 2% final DMSO to generate calibration curves. Ondansetron was used as reference compound to control proper assay performance 200 μl of each sample was transferred to 96-well plate and measured in 200-550 nm range with 5 nm step.
# The concentrations of compounds in PBS filtrate were calculated using a dedicated Microsoft Excel calculation script. Proper absorbance wavelengths for calculations were selected for each compound manually based on absorbance maximums (absolute absorbance unit values for the minimum and maximum concentration points within 0-3 OD range). Each of the final datasets was additionally visually evaluated by the operator and goodness of fit (R2) was calculated for each calibration curve.
# [2] = system: cisplatin induced acute kidney injury (CI-AKI); test: cisplatin induced acute kidney injury (CI-AKI) in mice, Compound 3; assay type: in vivo, C57BL/6J mice
# Description: The aim of the study was to investigate the efficacy of test compounds in the model of cisplatin induced acute kidney injury (CI-AKI) in mice.
# Serum analysis for urea (BUN) was performed on the 5th day and 9th days after cisplatin administration. The mean body weight loss per group was calculated every day of the study as percentage loss of initial (day 0) weight for each individual animal.
# Study design, animal selection, handling and treatment were all in accordance with the CRO's study protocols and Institutional Animal Care and Use Guidelines Animal treatment and serum samples preparation were conducted by the Animal Laboratory personnel at the CRO. 60 female C57BL/6J mice 9-12 weeks old were randomized by body weight and divided into 2 groups, 30 animals each. Body weights ranged from 13.9 to 22.0 g with an average body weight across all groups 17.75 g (SD=1.30; CV=7.3%). Each mouse was treated with a single dose via IP route of administration with cisplatin at the dose of 11 mg/kg on the day 0 of the study. […] The mice in Group 1 remained untreated after the cisplatin injection until the terminal sacrifice.
# Cisplatin was administered without dilution as a factory-made 1 mg/ml solution for infusion at the injection volume of 11 ml/kg for the dose of 11 mg/kg. […] Only freshly prepared formulation was used for each dosing; each working formulation batch was prepared immediately prior to the administration. The working formulations were sterile filtered using 0.2 μm cellulose acetate syringe filters before injections. The dosing volume for the test compound was 5 ml/kg of body weight. The working formulations were administered as transparent clear solutions. Intraperitoneal (IP) route of administration was used in the study. Urea (BUN) was determined in the serum using a commercial kit according to the manufacturer's instructions. […] The rate of absorbance change at λ=340 nm is proportional to the urea concentration. […] Creatinine was measured using mModified Jaffe's method, without deproteinization. […]
# [3] = system: Ischemia-Reperfusion Induced Acute Kidney Injury (IRI-AKI); test: Ischemia-Reperfusion Induced Acute Kidney Injury (IRI-AKI) in rats; assay type: in vivo, Sprague Dawley male rats; details: 10 mg/kg IV, seven days repeated; 60 minutes bilateral renal occlusion; 3 days after IRI; vs Vehicle treated group
# Description: The aim of the study was to investigate the efficacy of test compounds in the model of Ischemia-Reperfusion Induced Acute Kidney Injury (IRI-AKI) in Sprague Dawley male rats. IRI-AKI model was developed in experimental animals by applying bilateral renal occlusion. The duration of the occlusion was equal 60 minutes. For instance, rhe effects of seven days repeated intravenous (IV) administration of compound 22 of 10 mg/kg on pathology dynamics in rats exposed to IRI-AKI was assessed. […] Serum analysis for creatinine was performed one day prior to ischemia-reperfusion surgery, 24 hours after, and on the 3rd, 5th, and 7th day after IRI-AKI intervention. Study design, animal selection, handling and treatment were all in accordance with the CRO's study protocols and Institutional Animal Care and Use Guidelines Animal treatment and serum samples preparation were conducted by the Animal Laboratory personnel at the CRO. 28 male Sprague Dawley rats 11-14 weeks old were randomized by body weight All experimental animal were anesthetized prior to surgical intervention by Telazol at the dose of 40 mg/kg body weight and Xylazine at the dose of 7 mg/kg body weight. Acute renal injury model was achieved by performing bilateral renal occlusion. […] Creatinine was measured using mModified Jaffe's method, without deproteinization. […]
# [4] = system: cisplatin-induced acute kidney injury (CI-AKI); test: cisplatin-induced acute kidney injury (CI-AKI) mouse model, Compound 22; assay type: in vivo, C57BL/6J mice; details: for gradual recovery of mean body weight: cisplatin 11 mg/kg IP Day 0
# Description: The aim of the study was to investigate the efficacy of test compound(s) in a (mouse) model for acute kidney injury. Specifically, the study investigated the efficacy of test compound(s) in cisplatin-induced acute kidney injury (CI-AKI) mouse model. For example, the effect of daily repeated intraperitoneal (IP) administration of Compound 22 at doses of 50 mg/kg for 7 consecutive days in four different treatment regimens on development of pathology in mice in CI-AKI model was evaluated. Serum analysis for urea (BUN) was performed on the 5th day and 12th days after cisplatin administration. The mean body weight loss per group was calculated every day of the study as percentage loss of initial (day 0) weight for each individual animal.
# Study design, animal selection, handling and treatment were all in accordance with the CRO's study protocols and Institutional Animal Care and Use Guidelines Animal treatment and serum samples preparation were conducted by the Animal Laboratory personnel at the CRO. 100 female C57BL/6J mice 11-14 weeks old were randomized by body weight and divided into five groups, 20 animals each. Body weights ranged from 16.9 to 22.5 g with an average body weight across all groups 19.54 g (SD=1.04; CV=5.3%). Each mouse was treated with a single dose via IP route of administration with cisplatin at the dose of 11 mg/kg on the day 0 of the study. The mice in Group 2 and 4 were repeatedly treated with Compound 22 at the dose of 50 mg/kg with an interval of 24 h for seven consecutive days starting from Day 2 or Day 0 of the study, respectively. […]
# To induce acute kidney injury, Cisplatin was administered without dilution as a factory-made 1 mg/ml solution for infusion at the injection volume of 11 ml/kg for the dose of 11 mg/kg. […] Urea (BUN) was determined in the serum using a commercial kit according to the manufacturer's instructions. […] The rate of absorbance change at λ=340 nm is proportional to the urea concentration. […]
# [5] = system: renal progenitor cells; details: zebrafish embryos; proliferation-dependent manner; cited from earlier work
# [6] = 50 mg/kg IP, 5th day after the cisplatin injection
Compound,solubility kinetic at 2 h [1] [µM],also measured
"CN(C)CCOC(=O)CCCSc1ccccc1 [Compound 3, 2-(dimethylamino)ethyl 4-(phenylsulfanyl)butanoate]",–,"mean level of creatinine in serum compared to G1 [2, 6]: significantly less; mean level of urea in serum compared to G1 [2, 6]: significantly less; gradual recovery of mean body weight ([2]; G2: 50 mg/kg IP every 24 h for seven days starting Day 2, cisplatin 11 mg/kg IP Day 0): beginning from the sixth day of the study"
O=C(CCCSc1ccccc1)OCCOCCO [Compound 7],385,–
NCCC[C@H](NC(=O)CCCSc1ccccc1)C(=O)N[C@@H](CC(=O)O)C(=O)O.O=C(O)C(F)(F)F [Compound 9],383,–
NCCC[C@@H](NC(=O)CCCSc1ccccc1)C(=O)N[C@H](CCC(=O)O)C(=O)O.O=C(O)C(F)(F)F [Compound 11],391,–
NCCC[C@@H](NC(=O)[C@@H](CCC(=O)O)NC(=O)CCCSc1ccccc1)C(=O)O.O=C(O)C(F)(F)F [Compound 12],> 400,–
CN1CC2(CC(OC(=O)CCCSc3ccccc3)C2)C1 [Compound 15],≥ 400,–
O=C(CCCSc1ccccc1)OCCNCCO [Compound 16],> 400,–
O=C(O)CC[C@H](NC(=O)[C@H](CO)NC(=O)CCCSc1ccccc1)C(=O)O [Compound 20],> 400,–
"O=C(O)CCCSc1ccccc1 [PTBA, 4-(phenylthio)butanoic acid]",–,effect on pool of renal progenitor cells [5]: seemed to expand the pool of renal progenitor cells

# Now from value to compound, other results behind:
solubility kinetic at 2 h [1] [µM],Compound,also measured
> 400,"CCN1CCC(OC(=O)CCCSc2ccccc2)CC1.O=C(O)C(F)(F)F [Compound 1, 1-ethylpiperidin-4-yl 4-(phenylsulfanyl)butanoate]",–
> 400,"CN1CCC(C)(OC(=O)CCCSc2ccccc2)CC1.O=C(O)C(F)(F)F [Compound 2, 1,4-dimethylpiperidin-4-yl 4-(phenylsulfanyl)butanoate]",–
396,O=C(O)CC[C@@H](NC(=O)CCCSc1ccccc1)C(=O)O [Compound 5],–
> 400,O=C(CCCSc1ccccc1)OCC(O)CO (centres unmarked) [Compound 6],–
383,Cl.NCCC[C@@H](NC(=O)CCCSc1ccccc1)C(=O)O [Compound 8],–
> 400,CN1CCN(CCOC(=O)CCCSc2ccccc2)CC1.O=C(O)C(F)(F)F [Compound 13],–
387,O=C(O)C[C@@H](NC(=O)CCCSc1ccccc1)C(=O)O [Compound 14],–
> 400,O=C(CCCSc1ccccc1)O[C@@H]1CCNC1.O=C(O)C(F)(F)F [Compound 17],–
362,C[C@H](CN(C)C)OC(=O)CCCSc1ccccc1.O=C(O)C(F)(F)F [Compound 18],–
> 400,O=C(O)C[C@@H](OC(=O)CCCSc1ccccc1)C(=O)O [Compound 19],–
> 400,N[C@@H](COC(=O)CCCSc1ccccc1)C(=O)N[C@H](CCC(=O)O)C(=O)O.O=C(O)C(F)(F)F [Compound 21],–
398,"C[N+](C)(C)CCOC(=O)CCCSc1ccccc1.[Cl-] [Compound 22, N,N,N-trimethyl-2-{[4-(phenylsulfanyl)butanoyl]oxy}ethan-1-aminium chloride]","Creatinine level in serum [3]: significantly decreased; gradual recovery of mean body weight ([4]; G2-G3: 50 mg/kg IP once or twice a day for seven days starting Day 2): beginning from the fifth day of the study; mean level of urea in serum compared to G1 ([4]; G2-G5, 50 mg/kg IP, 5th day after the cisplatin injection, vs untreated G1): significantly less; gradual recovery of mean body weight ([4]; G4-G5: 50 mg/kg IP once or twice a day for seven days starting Day 0): beginning from the seventh day of the study"
399,NCCCC[C@@H](N)C(=O)NCCOC(=O)CCCSc1ccccc1.O=C(O)C(F)(F)F.O=C(O)C(F)(F)F [Compound 23],–
390,CC(C)[C@@H](N)C(=O)NCCCOC(=O)CCCSc1ccccc1 [Compound 24],–
